We go through one compound from paper PMC11530689, “Anti colorectal cancer activity and in silico studies of novel pyridine nortopsentin analog as cyclin dependent kinase 6 inhibitor” (Scientific Reports, 2024).

SMILES strings stand for the structures. pIC50: −log10 of the molar value.

The test system of data set [1] is HCT-116 cells. The data set can be described thus: MTT assay, IC50 determination. Type of data set: cell-based. To be noted: Homo sapiens, colorectal cancer HCT-116 cells, 48 h. The protocol:
HCT-116 (colon cancer cell line) was obtained from the American Type Culture Collection (ATCC). The cancer cell line was grown in Dulbecco’s Modified Eagle’s Medium (DMEM) supplemented with 10% fetal bovine serum (FBS), penicillin/streptomycin (100 U/mL and 100 μg/mL, respectively) and 2 mM L-glutamine. The cells were maintained at 37 °C in 5% CO2.
(§1) The cytotoxic activity of nortopsintin analogs (4a–4j) was determined by the national cancer institute (NCI, Bethesda, Maryland, USA) against 60 different cancer cell lines at a single concentration of (10^−5 M). For the determination of IC50 value, we used MTT assay kit (Sigma) according to the manufacturer’s protocol. HCT-116 cells were seeded into a 96-well plate at a concentration of 20,000 cells/well. After 24 h, the media was aspirated and replaced with serum-free media containing serial dilutions of the 4i compound. The cells were treated for 48 h in triplicates. […] The percentage of cytotoxicity was calculated using the following equation: % Cytotoxicity = [1 − (AVx/AVNC)] × 100.
Where, AVx denotes the average absorbance of the sample and AVNC denotes the average absorbance of the negative control. The absorbance was measured at 570 nm with reference at 690 nm.
(In general: Tetrazolium dyes change colour on reduction, which living cells bring about.)

For data set [2], the target named is CDK6/Cyclin D3 (Homo sapiens, UniProt Q00534). Kind of data set: Cyclin dependent kinase enzymatic activity assay (ADP-Glo). It counts as biochemical. The procedure:
(§2) ADP-Glo™ Kinase Assay kit (Promega, USA) was used for the enzymatic activity analysis according to the manufacturer’s instructions. In brief, to each well we added 1 μl of inhibitor, 2 μl of each cyclin dependent kinase enzymes, and 2 μl of substrate/ATP mix and incubated at room temperature for 60 min. After that 5 μl of ADP‐Glo™ reagent was added and incubated at room temperature for 40 min. 10 μl of kinase detection reagent was added and incubated at room temperature for 30 min, then the luminescence was measured.
For orientation: ADP-Glo first removes unused ATP, then detects ADP through luciferase.

Data set [3] addresses CDK2/Cyclin E1 (Homo sapiens, UniProt P24941). Described as above. Type of data set: biochemical. The protocol: as §2
Data set [4] deals with CDK4/Cyclin D3 (Homo sapiens, UniProt P11802). The data set is described as above. It counts as biochemical. The protocol:
as §2

In data set [5] the test system is 60 different cancer cell lines. Kind of data set: NCI screen against 60 cancer cell lines, overall. To be noted: single concentration 10^−5 M. Type of data set: cell-based. The procedure: as §1, with “(4a-4j)” for “(4a–4j)”, “(10^-5” for “(10^−5”, “manufacturer's” for “manufacturer’s”, “compound.” for “compound. The cells were treated for 48 h in triplicates.”, “- ([…])]” for “− (AVx/AVNC)]”

Chain of CDK4/Cyclin D3 (P11802 whole entry): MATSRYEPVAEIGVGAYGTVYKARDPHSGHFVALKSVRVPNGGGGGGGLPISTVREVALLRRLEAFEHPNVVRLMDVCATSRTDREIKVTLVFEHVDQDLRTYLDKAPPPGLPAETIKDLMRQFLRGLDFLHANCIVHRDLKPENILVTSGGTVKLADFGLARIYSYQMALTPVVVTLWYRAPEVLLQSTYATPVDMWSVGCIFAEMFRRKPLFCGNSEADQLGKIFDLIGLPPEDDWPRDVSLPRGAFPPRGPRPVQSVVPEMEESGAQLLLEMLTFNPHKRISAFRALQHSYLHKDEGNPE
Chain of CDK4/Cyclin D3 (P30281 whole entry partner): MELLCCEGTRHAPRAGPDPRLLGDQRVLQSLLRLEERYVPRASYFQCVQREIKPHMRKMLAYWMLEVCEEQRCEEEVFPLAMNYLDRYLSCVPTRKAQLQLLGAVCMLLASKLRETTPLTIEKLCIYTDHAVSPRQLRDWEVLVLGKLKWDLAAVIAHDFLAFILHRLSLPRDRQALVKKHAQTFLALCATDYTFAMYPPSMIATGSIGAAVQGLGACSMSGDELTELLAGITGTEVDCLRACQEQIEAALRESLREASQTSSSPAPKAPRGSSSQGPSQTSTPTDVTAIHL
Chain of CDK6/Cyclin D3 (Q00534 whole entry): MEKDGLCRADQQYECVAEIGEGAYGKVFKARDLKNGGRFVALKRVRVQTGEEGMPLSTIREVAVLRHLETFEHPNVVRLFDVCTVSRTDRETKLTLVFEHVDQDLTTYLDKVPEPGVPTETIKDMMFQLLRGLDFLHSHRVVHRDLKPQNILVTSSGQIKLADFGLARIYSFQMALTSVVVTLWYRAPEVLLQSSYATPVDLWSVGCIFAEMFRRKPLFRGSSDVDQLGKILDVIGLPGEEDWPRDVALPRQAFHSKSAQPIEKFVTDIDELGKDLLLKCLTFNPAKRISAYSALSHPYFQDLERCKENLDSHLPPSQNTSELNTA
Chain of CDK6/Cyclin D3 (P30281 whole entry partner): as the sequence (P30281 whole entry partner) above

Usually pIC50 stands for −log10 of the IC50, conventionally taken in molar units. A lower pIC50 goes with a high IC50. Consider `CN(C)c1ccc(-c2cc(-c3c[nH]c4ccccc34)nc(-c3c[nH]c4ccccc34)c2C#N)cc1` [4i], for which the pIC50 was 7.54 in data set [1], 7.01 in data set [2], 6.18 in data set [3] and 6.58 in data set [4]. Moreover, the “cytotoxic / antiproliferative activity over the panel” value in data set [5] is reported as “highest level of cytotoxic activity”.
